From paper PMC11165448, “Biocatalytic Heteroaromatic Amide Formation in Water Enabled by a Catalytic Tetrad and Two Access Tunnels” (ACS Catalysis, 2024)

Molecular target: T1, acyltransferase from M. smegmatis (MsAcT) (Mycolicibacterium smegmatis, UniProt A0R5U7)
T1 construct: gene MSMEG_6317; His6-tagged, expressed in Escherichia coli, cell-free extract
Assay: amide formation screen with cell-free extract
Type: cell-based
Conditions: co-substrate benzylamine 20 mM; ester 20 mM; buffer, 30 C

T1 sequence (A0R5U7 entry or part of it): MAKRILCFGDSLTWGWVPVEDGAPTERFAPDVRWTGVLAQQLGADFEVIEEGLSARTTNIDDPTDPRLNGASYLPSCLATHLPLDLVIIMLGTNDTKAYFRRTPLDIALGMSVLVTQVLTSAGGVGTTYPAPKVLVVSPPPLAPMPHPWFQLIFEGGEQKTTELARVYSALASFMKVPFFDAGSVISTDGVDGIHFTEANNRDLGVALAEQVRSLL

## CCOC(=O)c1ccco1 [1e, ethyl 2-furoate]
  amide formation screen with cell-free extract: MsAcT and variants displayed activity with ethyl 2-furoate 1e
